Reference: PubChem BioAssay (NCI)
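Briefly, cells in 96-well plates were exposed to five compound concentrations for 48 h, and endpoints were estimated by linear interpolation. Here, GI50 denotes the concentration required for 50% inhibition of growth. TGI marks complete inhibition of growth.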

What was measured:
Experiment in all cases: inhibition of tumour cell growth, NCI panel, 48 h
[1] = system: SW-620 colon
[2] = system: RPMI-8226 leukemia
[3] = system: CCRF-CEM leukemia
[4] = system: A498 renal
[5] = system: COLO 205 colon
[6] = system: SK-MEL-5 melanoma
[7] = system: HOP-92 NSCLC
[8] = system: T-47D breast
[9] = system: ACHN renal
[10] = system: DU-145 prostate
[11] = system: SK-MEL-28 melanoma
[12] = system: SNB-75 CNS
[13] = system: PC-3 prostate
[14] = system: UO-31 renal
[15] = system: SK-MEL-2 melanoma
[16] = system: A549 NSCLC
[17] = system: HCT-15 colon
[18] = system: SF-539 CNS
[19] = system: MALME-3M melanoma
[20] = system: UACC-257 melanoma
[21] = system: HS 578T breast
[22] = system: HL-60(TB) leukemia
[23] = system: OVCAR-5 ovarian
[24] = system: HOP-62 NSCLC
[25] = system: M14 melanoma
[26] = system: NCI-H226 lung
[27] = system: HT29 colon
[28] = system: OVCAR-8 ovarian
[29] = system: NCI-H522 lung
[30] = system: MCF7 breast
[31] = system: HCC-2998 colon
[32] = system: BT-549 breast
[33] = system: SF-268 CNS
[34] = system: TK-10 renal
[35] = system: SR leukemia
[36] = system: NCI/ADR-RES ovarian
[37] = system: HCT-116 colon
[38] = system: CAKI-1 renal
[39] = system: OVCAR-3 ovarian
[40] = system: IGROV1 ovarian
[41] = system: NCI-H460 lung
[42] = system: SF-295 CNS
[43] = system: OVCAR-4 ovarian
[44] = system: SK-OV-3 ovarian
[45] = system: UACC-62 melanoma
[46] = system: MDA-MB-231 breast
[47] = system: 786-0 renal
[48] = system: KM12 colon
[49] = system: NCI-H23 lung
[50] = system: LOX IMVI melanoma
[51] = system: MDA-MB-435
[52] = system: K-562 leukemia
[53] = system: U251 CNS
[54] = system: SN12C renal
[55] = system: SNB-19 CNS
[56] = system: MOLT-4 leukemia
[57] = system: RXF 393 renal

O=C(NC1CCN(Cc2ccccc2)CC1)c1cc(-c2ccncc2)nc2ccc(Cl)cc12
GI50 [1]: 19.8 µM
TGI [1]: > 100 µM
GI50 [2]: 12.4 µM
TGI [2]: > 74 µM
GI50 [3]: 21.2 µM
TGI [3]: > 100 µM
TGI [4]: 3.45 µM
GI50 [5]: 7.76 µM
TGI [5]: 42.7 µM
GI50 [6]: 9.07 µM
TGI [6]: 21.7 µM
GI50 [7]: 2.49 µM
TGI [7]: 47.4 µM
GI50 [8]: 13.3 µM
TGI [8]: 49.1 µM
GI50 [9]: 6.71 µM
TGI [9]: 24.7 µM
GI50 [10]: 20.1 µM
TGI [10]: 63.1 µM
GI50 [11]: 10.5 µM
TGI [11]: > 50.7 µM
GI50 [12]: 2.43 µM
TGI [12]: 30.4 µM
GI50 [13]: 13.6 µM
TGI [13]: > 100 µM
GI50 [14]: 3.12 µM
TGI [14]: 33.9 µM
GI50 [15]: 29.8 µM
TGI [15]: 87.1 µM
GI50 [16]: 10.6 µM
TGI [16]: 54.2 µM
GI50 [17]: 10.5 µM
TGI [17]: > 48.2 µM
GI50 [18]: 13.1 µM
TGI [18]: 35.9 µM
GI50 [19]: 9.39 µM
TGI [19]: 26.9 µM
GI50 [20]: 16.9 µM
TGI [20]: 36.3 µM
GI50 [21]: 14.4 µM
TGI [21]: 64 µM
GI50 [22]: 17.3 µM
TGI [22]: 59.6 µM
GI50 [23]: 13.9 µM
TGI [23]: > 100 µM
GI50 [24]: 14.5 µM
TGI [24]: > 100 µM
GI50 [25]: 7.02 µM
TGI [25]: 34.9 µM
GI50 [26]: 30.2 µM
TGI [26]: > 100 µM
GI50 [27]: 4.7 µM
TGI [27]: 19.7 µM
GI50 [28]: 22.5 µM
TGI [28]: > 72.9 µM
GI50 [29]: 22.2 µM
TGI [29]: 60.6 µM
GI50 [30]: 5.66 µM
TGI [30]: 30.6 µM
GI50 [31]: 21.6 µM
TGI [31]: > 91.1 µM
GI50 [32]: 17.2 µM
TGI [32]: 99.9 µM
GI50 [33]: 22.6 µM
TGI [33]: > 100 µM
GI50 [34]: 29.7 µM
TGI [34]: > 91.8 µM
GI50 [35]: 6.82 µM
TGI [35]: 34.8 µM
GI50 [36]: 22.2 µM
TGI [36]: > 100 µM
GI50 [37]: 9.64 µM
TGI [37]: 33.9 µM
GI50 [38]: 5.43 µM
TGI [38]: > 50.5 µM
GI50 [39]: 15.4 µM
TGI [39]: 40.1 µM
GI50 [40]: 18.5 µM
TGI [40]: > 100 µM
GI50 [41]: 11.4 µM
TGI [41]: 33.7 µM
GI50 [42]: 17.4 µM
TGI [42]: 53.5 µM
GI50 [43]: 10.7 µM
TGI [43]: 59.6 µM
GI50 [44]: 23.3 µM
TGI [44]: > 100 µM
GI50 [45]: 20.6 µM
TGI [45]: > 85.3 µM
GI50 [46]: 4.5 µM
TGI [46]: > 59.9 µM
GI50 [47]: 6.84 µM
TGI [47]: 28.7 µM
GI50 [48]: 24.1 µM
TGI [48]: > 100 µM
GI50 [49]: 43.5 µM
TGI [49]: > 100 µM
GI50 [50]: 12 µM
TGI [50]: 29.6 µM
GI50 [51]: 15 µM
TGI [51]: > 88.7 µM
GI50 [52]: 3.78 µM
TGI [52]: 27.3 µM
GI50 [53]: 17.1 µM
TGI [53]: > 71.7 µM
GI50 [54]: 35.6 µM
TGI [54]: > 100 µM
GI50 [55]: 26.3 µM
TGI [55]: > 100 µM
GI50 [56]: 4.26 µM
TGI [56]: > 46.3 µM
GI50 [57]: 5.48 µM
TGI [57]: 49.2 µM
